Reference: patent US9573911B2, “Diphosphate mimetics and uses thereof” (President and Fellows of Harvard College, priority 2011, dated 2017)

Columns and labels:
OGT [1] = target: T1, OGT (Homo sapiens, UniProt O15294); test: Time-dependent inactivation of OGT with BZX compounds; format: biochemical
T1 construct: hOGT4.5 construct (spanning residues 313-1031 based on the numbering of the full length human protein); made in house
T1 sequence (O15294 313-1031 isoform O15294-3): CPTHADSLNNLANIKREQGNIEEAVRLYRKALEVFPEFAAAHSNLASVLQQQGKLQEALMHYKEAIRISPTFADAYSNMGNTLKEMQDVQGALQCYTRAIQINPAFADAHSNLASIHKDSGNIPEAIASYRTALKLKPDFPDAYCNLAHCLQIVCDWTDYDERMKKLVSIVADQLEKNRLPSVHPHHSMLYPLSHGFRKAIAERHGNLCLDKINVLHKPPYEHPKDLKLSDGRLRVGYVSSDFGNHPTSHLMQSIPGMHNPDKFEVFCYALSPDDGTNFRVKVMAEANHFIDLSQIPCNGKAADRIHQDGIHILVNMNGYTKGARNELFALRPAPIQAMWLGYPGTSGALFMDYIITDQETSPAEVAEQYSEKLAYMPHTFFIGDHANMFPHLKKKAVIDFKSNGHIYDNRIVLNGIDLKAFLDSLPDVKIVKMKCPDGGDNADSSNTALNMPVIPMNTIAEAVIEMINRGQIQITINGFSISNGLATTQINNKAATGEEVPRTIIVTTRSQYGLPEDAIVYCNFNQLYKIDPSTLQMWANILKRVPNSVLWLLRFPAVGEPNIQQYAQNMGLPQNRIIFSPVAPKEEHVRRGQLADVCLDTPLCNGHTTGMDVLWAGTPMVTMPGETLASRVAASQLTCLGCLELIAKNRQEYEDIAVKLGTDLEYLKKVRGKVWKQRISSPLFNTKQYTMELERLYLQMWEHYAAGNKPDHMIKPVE
Description: Compound (1) was identified in a high-throughput screen of 65,000 compounds (FIG. 1). See, e.g., Gross et al., J. Am. Chem. Soc. (2005) 127:14588-14589. It contains a dicarbamate moiety that links two aromatic groups. This compound features a conjugated chemical structure and both carbamate carbonyls are potentially reactive. See, e.g., Alexander et al., Chem. Biol. (2005) 12:1179-1187. […] A small panel of related compounds was made from commercially available building blocks in order to identify structural features that might improve potency. Time-dependent inactivation studies were carried out in which OGT was preincubated with a three-fold excess of each compound for 5 min, and the mixture was then diluted 100-fold into buffer containing UDP-^14C-GlcNAc and the well-characterized peptide substrate, CKII. See, e.g., Kreppel et al., J. Biol. Chem. (1999) 274:32015-32022). Enzyme activity was measured using a previously developed peptide capture assay. See, e.g., Gross et al., J. Am. Chem. Soc. (2005) 127:14588-14589.
Each BZX compound (7.5 μM) was preincubated with 5 μM OGT in reaction buffer (125 mM NaCl, 1 mM EDTA, 20 mM potassium phosphate, pH 7.4, and 500 μM tris(hydroxypropyl)phosphine (THP)) at room temperature for different amount of time, then diluted 100-fold, mixed with substrates (6 μM UDP-^14C-GlcNAc and 500 μM CKII peptide (KKKYPGGSTPVSSANMM)) and allowed to react for another 2 h. Enzyme activity was tested with the peptide capture assay as previously reported. See, e.g., Gross et al., J. Am. Chem. Soc. (2005) 127:14588-14589. The final volume of each reaction was 20 μl, and the experiments were conducted in triplicate. The activities of OGT mutants were also tested in triplicate as previously reported. See, e.g., Gross supra.

OGT [2] = target: T1, OGT; test: IC50 assay, OGT peptide-capture assay; format: biochemical; conditions: peptide-capture assay, different concentrations of each compound, read-out: IC50 Values
Protocol: IC50 Assay of Thiocarbamate to OGT.
Enzyme activity was tested with the peptide-capture assay in the presence of different concentrations of each compound as previously reported (J. Am. Chem. Soc. 2005, 127, 14588-14589).

| SMILES | IC50 (OGT [2]) | inactivation time course of OGT (OGT [1]; 1.5:1 inhibitor:enzyme ratio) | OGT enzyme activity after preincubation with compound (OGT [1]; three-fold excess of compound, 5 min preincubation, then diluted 100-fold) |
| --- | --- | --- | --- |
| COc1ccc(OC(=O)n2c(=O)oc3cc(C(C)=O)ccc32)cc1 [Compound 1] | – | – | irreversible loss of enzyme activity |
| COc1ccc(OC(=O)n2c(=O)oc3ccc(Cl)cc32)cc1 [Compound 3] | 18 µM | – | – |

Now from value to compound, other results behind:

| IC50 (OGT [2]) | inactivation time course of OGT (OGT [1]; 1.5:1 inhibitor:enzyme ratio) | SMILES | OGT enzyme activity after preincubation with compound (OGT [1]; three-fold excess of compound, 5 min preincubation, then diluted 100-fold) |
| --- | --- | --- | --- |
| 60 µM | – | O=C(Oc1ccccc1)n1c(=O)oc2cc([N+](=O)[O-])ccc21 [Compound 4] | – |
| > 100 µM | – | O=C(Oc1ccccc1)n1c(=O)oc2ccccc21 [Compound 5] | – |
| ~100 µM | no inhibition | COc1ccc2c(c1)oc(=O)n2C(=O)Oc1ccccc1 [Compound 6] | – |
